#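 Cells were grown in 96-well plates and exposed to each compound for 48 hours at five concentrations; endpoints were interpolated linearly between bracketing concentrations, or set to the highest concentration if not reached. At the TGI there is no net growth.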 Where a SMILES comes first, the peptide text is derived from it. The star is where a group is joined. Fmoc = O=C(OCC1c2ccccc2-c2ccccc21)*; Boc = CC(C)(C)OC(=O)*
# How the values were obtained:
# Assay in all cases: NCI anticancer screen, dose series, 48 h
# [1] = test system: CCRF-CEM leukemia
# [2] = test system: DMS 114 small cell lung
# [3] = test system: HCT-116 colon
# [4] = test system: HT29 colon
# [5] = test system: KM20L2 colon
# [6] = test system: M19-MEL melanoma
# [7] = test system: MOLT-4 leukemia
# [8] = test system: SK-MEL-5 melanoma
# [9] = test system: SN12C renal
# [10] = test system: UO-31 renal
# [11] = test system: HS 578T breast
# [12] = test system: MDA-N
Structure (SMILES),TGI [1] [µM],TGI [2] [µM],TGI [3] [µM],TGI [4] [µM],TGI [5] [µM],TGI [6] [µM],TGI [7] [µM],TGI [8] [µM],TGI [9] [µM],TGI [10] [µM],TGI [11] [µM],TGI [12] [µM]
O=C(O)c1cn2c3c(cc(N4CCN(CCO)CC4)cc3c1=O)SCC2,> 100,> 100,> 100,> 100,> 100,> 100,> 100,> 100,> 100,> 100,–,–
COc1ccc(/C=c2\sc3n(c2=O)C(N)=C(C#N)C(c2ccc(OC)cc2)C=3c2nc3ccccc3[nH]2)cc1 (stereo not drawn),> 100,72.9,64.1,–,> 100,63.8,> 100,36.8,> 100,> 100,–,–
O=C/C=C/c1ccco1,> 100,–,> 100,> 100,–,–,> 100,> 100,> 100,> 100,> 100,> 100
Cn1/c(=N\S(=O)(=O)c2ccccc2)n(S(=O)(=O)c2ccccc2)c2ccccc21,83.3,–,> 100,> 100,–,–,> 100,> 100,> 100,> 100,> 100,> 100
Cc1cc(Cc2c(F)c(F)c(C(c3cc(C)no3)c3c(F)c(F)c(F)c(F)c3F)c(F)c2F)on1 (stereo not drawn),> 100,–,> 100,> 100,–,–,> 100,> 100,> 100,> 100,> 100,15.1
c1csc(-c2cc(-c3cccs3)c(-c3cccs3)s2)c1,> 100,–,> 100,> 100,–,–,> 100,> 100,> 100,> 100,> 100,> 100
N#CCCN(CCC#N)c1ccc(/C=C2\N=C(c3ccccc3)N(NC(N)=S)C2=O)cc1,> 100,–,> 100,> 100,–,–,> 100,> 100,> 100,> 100,> 100,> 100
CCOC(=O)C1=C(C)N(c2ccc(C)cc2)C2=C(C(=O)N(c3ccccc3)C2c2ccccc2)C1c1ccccc1 (stereo not drawn),> 25,> 25,> 25,> 25,> 25,> 25,> 25,> 25,> 25,> 25,–,–
CCOC(=O)c1c(N2CCCC2)[nH]c(=O)c(C(c2ccco2)c2c(O)c(C(=O)OCC)c(N3CCCC3)[nH]c2=O)c1O,> 100,–,> 100,> 100,–,–,> 100,> 100,> 100,> 100,> 100,> 100
CC(C)[Si](OC1=CCC[C@H]2NC(=O)[C@@H](Cc3ccccc3)[C@@]12C)(C(C)C)C(C)C,10.2,–,14.1,12.1,–,–,14.7,9.58,9.85,22.3,18.5,14.2
Cn1c2ccccc2c2c(=O)[nH]c(=O)[nH]c21,> 100,–,> 100,> 100,–,–,> 100,> 100,> 100,> 100,> 100,> 100
Cc1cc(C)nc(SC(C)C(=O)N/N=C/c2ccc(OCc3ccccc3)cc2)n1 (stereo not drawn),> 100,–,> 100,> 100,–,–,86.1,20.5,> 100,> 100,> 100,> 100
COc1ccc(C(SCCO)(c2ccccc2)c2ccccc2)cc1,64.8,–,23.7,39.2,–,–,> 100,21.7,28.4,28.1,59.2,26
CNC(=O)N(C)COC,> 100,> 100,> 100,> 100,> 100,> 100,> 100,–,> 100,> 100,–,–
CSc1ccc(NC(=S)NN(C)C)cc1,> 10,–,> 10,> 10,–,–,> 10,> 10,> 10,> 10,> 10,> 10
CC1(CCCO)CCCCCCCCCC(C)(CCCO)C1=O (stereo not drawn),> 100,–,> 100,> 100,–,–,> 100,> 100,> 100,> 100,> 100,> 100

Structure (SMILES),TGI [1] [µM],TGI [2] [µM],TGI [3] [µM],TGI [4] [µM],TGI [5] [µM],TGI [6] [µM],TGI [7] [µM],TGI [8] [µM],TGI [9] [µM],TGI [10] [µM],TGI [11] [µM],TGI [12] [µM]
CC(C)(C)c1cc(C2=NN(c3ccccc3)C(c3ccccc3)C2)cc(C(C)(C)C)c1O (stereo not drawn),> 100,–,> 100,> 100,–,–,> 100,> 100,> 100,> 100,> 100,> 100
NC1CC2NC3CCCCC3NC2CC1N (stereo not drawn),> 100,–,> 100,> 100,–,–,92.9,67.3,> 100,> 100,> 100,> 100
O=C(/C=C/c1cc(O)c(O)cc1O)OCCc1ccccc1,7.17,–,> 58.4,41.6,–,–,11.7,38.4,22.1,19.7,> 93.9,20.2
CCCCCCCCCCCCCC[S+](C)C,3.25,–,> 10,4.93,–,–,2.85,2.97,3.24,> 10,3.78,4.15
CCCCN1C(=O)c2c(-c3sccc3N)sc(-c3sccc3N)c2C1=O,> 31,–,> 100,44.5,–,–,> 24.4,> 100,> 55,> 51,83.6,> 34.6
C#CC1(O)C(COP(=O)(O)OCC2OC(n3ccc(NCCCCCCCCCCCCCCCCCC)nc3=O)C(O)C2O)OC(n2ccc(N)nc2=O)C1O (stereo not drawn),> 100,–,> 36,> 95,–,–,40,26,39.9,2.53,45.2,70.6
CC(C)(C)OC(=O)NCCCCC(NC(=O)OCC1c2ccccc2-c2ccccc21)C(=O)N1CCCC1C(=O)NCC(N)=O (stereo not drawn) (Fmoc-Lys(Boc)-Pro-Gly-NH2; configuration not given here),> 100,–,> 100,> 100,–,–,77.3,> 100,30.2,29.1,> 100,49.9
CN1CCC(CN2c3ccccc3Sc3ccccc32)CC1,35.9,29.8,25.2,25.3,25.8,26.4,32.9,18.5,33.9,21.8,–,–
CC(=O)OC(CCC1(C)OC1COc1ccc(CCNC(=O)c2ccccc2)cc1)C(C)(C)OC(C)=O (stereo not drawn),> 100,15.8,45.5,44,> 100,69,> 100,17.4,> 100,> 100,–,–
Cc1ccc(O)c(-c2cc(-c3cccc(Cl)c3)c(C#N)c(N)n2)c1,55.2,–,30.1,58.3,–,–,38.6,29.2,47.6,52.8,49.7,37.8
COC(=O)C1CCC(=O)N1C(c1ccc(OC)cc1)c1ccc(OC)cc1 (stereo not drawn),> 100,–,> 100,> 100,–,–,> 100,> 100,> 100,> 100,> 100,> 100
O=c1[nH]c(Nc2cc(Cl)cc(Cl)c2)nc2nc[nH]c12,> 75,–,> 75,> 75,–,–,> 75,> 75,> 75,> 75,68.5,> 75
CCCCCCOP(=O)(OCCCCCC)C(NC(=O)OCC)(C(F)(F)F)C(F)(F)F,> 100,–,90.2,> 100,–,–,> 100,44.1,> 100,72.2,> 100,> 100
O=C(/C=C/c1ccc(/C=C/C(=O)c2ccc(O)cc2)cc1)c1ccc(O)cc1,> 100,–,> 100,> 100,–,–,> 100,> 100,> 100,> 100,> 100,> 100
NCCCNC1(c2cc3ccccc3s2)CCCCC1,13,–,4.91,10.9,–,–,15.7,3.31,22.8,8.44,30.2,3.56

# Source: PubChem BioAssay (NCI)
